According to paper PMC9095466 (Nature, 2022):
Values joined by “and” are separate entries in the source; they are usually repeats but may differ in a detail not shown here. Identical values can stand only once.

Columns and labels:
human TMPRSS2 = human TMPRSS2 (Homo sapiens, UniProt O15393); experiment: cell-based
Recombinant human DESC1 = molecular target: T1, Recombinant human DESC1 (Homo sapiens, UniProt Q9UL52); experiment: Protease selectivity, Ki on recombinant protease; type: biochemical; settings: mean ± s.d., max concentration 10 µM; read-out: Ki DESC1
T1 construct: made in house
T1 sequence (Q9UL52 1-423): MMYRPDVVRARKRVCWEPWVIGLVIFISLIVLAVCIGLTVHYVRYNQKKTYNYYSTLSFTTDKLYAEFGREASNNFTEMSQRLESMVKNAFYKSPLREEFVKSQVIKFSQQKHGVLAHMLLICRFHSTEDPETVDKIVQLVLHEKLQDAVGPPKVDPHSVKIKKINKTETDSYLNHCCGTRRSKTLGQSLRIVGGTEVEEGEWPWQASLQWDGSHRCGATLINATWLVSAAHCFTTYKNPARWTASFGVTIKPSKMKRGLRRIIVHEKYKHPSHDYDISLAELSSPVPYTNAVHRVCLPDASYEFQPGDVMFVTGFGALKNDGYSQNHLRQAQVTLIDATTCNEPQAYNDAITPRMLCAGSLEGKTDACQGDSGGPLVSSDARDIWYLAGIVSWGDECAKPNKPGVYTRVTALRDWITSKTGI

Recombinant human furin = molecular target: T2, Recombinant human furin (Homo sapiens, UniProt P09958); experiment: Protease selectivity, Ki on recombinant protease; type: biochemical; settings: mean ± s.d., max concentration 10 µM; read-out: Ki Furin
T2 construct: purchased Bio-Techne
T2 sequence (P09958 108-794): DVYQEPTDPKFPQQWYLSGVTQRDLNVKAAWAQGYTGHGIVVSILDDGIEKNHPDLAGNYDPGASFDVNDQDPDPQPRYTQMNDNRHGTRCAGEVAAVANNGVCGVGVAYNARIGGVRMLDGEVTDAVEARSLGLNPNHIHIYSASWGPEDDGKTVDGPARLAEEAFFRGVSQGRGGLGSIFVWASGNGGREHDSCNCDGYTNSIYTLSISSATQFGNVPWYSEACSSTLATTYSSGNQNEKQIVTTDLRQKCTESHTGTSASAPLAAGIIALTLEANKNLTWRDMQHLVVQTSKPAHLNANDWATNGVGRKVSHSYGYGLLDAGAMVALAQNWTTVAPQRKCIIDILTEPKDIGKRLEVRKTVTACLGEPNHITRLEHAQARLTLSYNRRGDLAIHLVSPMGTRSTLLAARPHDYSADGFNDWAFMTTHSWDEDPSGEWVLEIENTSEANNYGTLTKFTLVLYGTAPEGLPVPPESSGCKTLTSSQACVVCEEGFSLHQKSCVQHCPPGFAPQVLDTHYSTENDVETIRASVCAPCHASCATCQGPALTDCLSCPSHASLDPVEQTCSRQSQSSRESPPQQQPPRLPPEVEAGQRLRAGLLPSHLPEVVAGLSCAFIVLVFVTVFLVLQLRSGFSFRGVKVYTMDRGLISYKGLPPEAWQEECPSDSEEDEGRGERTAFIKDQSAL

human cathepsin L = molecular target: T3, human cathepsin L (Homo sapiens, UniProt P07711); experiment: Protease selectivity, Ki on protease; type: biochemical; settings: mean ± s.d., max concentration 10 µM; read-out: Ki Cathepsin L
T3 construct: purchased Bio-Techne
T3 sequence (P07711 114-333): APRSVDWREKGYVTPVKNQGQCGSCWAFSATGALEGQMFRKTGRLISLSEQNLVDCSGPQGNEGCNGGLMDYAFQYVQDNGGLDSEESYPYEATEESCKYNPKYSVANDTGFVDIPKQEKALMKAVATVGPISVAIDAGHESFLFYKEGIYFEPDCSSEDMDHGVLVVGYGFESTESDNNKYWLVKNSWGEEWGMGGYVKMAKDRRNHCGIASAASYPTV

[1] = tested on: SARS-CoV-2 lineage B strain (VIDO); experiment: microbe, parasite or virus in culture; type: cell-based
[2] = tested on: SARS-CoV-2 B.1.1.7 (Alpha); experiment: microbe, parasite or virus in culture; type: cell-based; settings: UK
[3] = Cytotoxicity CC50 in Calu-3 lung epithelial cells; type: cell-based, human; settings: human; Calu-3 lung epithelial cells, n = 2; read-out: CC50 in Calu-3 cells

Chain of human TMPRSS2 (O15393 whole entry): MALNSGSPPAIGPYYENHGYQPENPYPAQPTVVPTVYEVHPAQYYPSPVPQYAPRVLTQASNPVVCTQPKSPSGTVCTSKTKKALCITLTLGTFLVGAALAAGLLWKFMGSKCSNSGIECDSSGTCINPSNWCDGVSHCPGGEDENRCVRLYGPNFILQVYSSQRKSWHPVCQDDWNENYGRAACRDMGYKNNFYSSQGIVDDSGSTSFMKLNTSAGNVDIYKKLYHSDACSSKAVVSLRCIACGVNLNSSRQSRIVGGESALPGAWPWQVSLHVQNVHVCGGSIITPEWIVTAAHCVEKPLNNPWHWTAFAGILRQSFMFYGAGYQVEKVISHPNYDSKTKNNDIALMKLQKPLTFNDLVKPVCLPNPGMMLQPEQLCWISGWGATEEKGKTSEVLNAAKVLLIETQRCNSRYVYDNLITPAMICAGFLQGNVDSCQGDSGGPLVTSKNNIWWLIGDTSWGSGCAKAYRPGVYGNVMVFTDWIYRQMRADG

SMILES: CS(=O)(=O)NC(CCC(N)=O)C(=O)NC(Cc1ccccc1)C(=O)NC(CCCNC(=N)N)C(=O)c1nc2ccccc2s1 (stereo not drawn) [Compound N-0385, Ms-QFR-kbt]
- TMPRSS2 activity (%) (human TMPRSS2; Figure 1B, single experiments N1-N3): 12.847% and 18.5887% and 21.0267%
- inhibition at 0.01 µM (human TMPRSS2; Vero C1008, 10 nM compound, 24 h, vs untreated/vehicle TMPRSS2-expressing Vero E6 cells, read-out: inhibition of TMPRSS2 activity (reduction of substrate proteolysis)): 83%
- Ki (Recombinant human DESC1): 0.0266 ± 0.0088 µM
- Ki (Recombinant human furin): > 10 µM
- Ki (human cathepsin L): 6.29 ± 3.61 µM
- Nucleocapsid ([1]; Figure 2a, two replicates, DMSO control about 91-94): 1.14 and 1.542
- dsRNA ([1]; Figure 2a, two replicates, DMSO control about 93-95): 2.011 and 2.808
- EC50 ([1]; Severe acute respiratory syndrome coronavirus 2, Calu-3, read-out: SARS-CoV-2 VIDO Nucleocapsid EC50 ± SE): 0.0028 ± 0.0014 µM
- inhibition at 0.1 µM ([1]; Severe acute respiratory syndrome coronavirus 2, Calu-3, read-out: inhibition of SARS-CoV-2 infection): > 99%
- Figure 2b dose-response, Mean ([1]; log [C] (nM) 0.20412): 56.2346
- Figure 2b dose-response, Mean ([1]; log [C] (nM) 0.90309): 18.4653
- Figure 2b dose-response, Mean ([1]; log [C] (nM) 1.60206): 7.161
- Figure 2b dose-response, Mean ([1]; log [C] (nM) 2.30103): 5.446
- Figure 2b dose-response, Mean ([1]; log [C] (nM) 3): 1.469
- Figure 2b dose-response, Mean ([1]; log [C] (nM) -0.49485): 74.438
- Figure 2b dose-response, Mean ([1]; log [C] (nM) -1.19382): 85.6866
- infection, dose response Figure 3c (nucleocapsid) ([2]; log [C] (nM) -0.49485): 100.507 and 68.1892 and 93.9276 and 91.6566 and 100
- infection, dose response Figure 3d (dsRNA) ([2]; log [C] (nM) -0.49485): 68.6997 and 68.3556 and 77.9197 and 68.9 and 100
- infection, dose response Figure 3c (nucleocapsid) ([2]; log [C] (nM) -1.19382): 96.9973 and 100 and 88.1248
- infection, dose response Figure 3d (dsRNA) ([2]; log [C] (nM) -1.19382): 83.4401 and 68.4372 and 71.2209 and 84.9067 and 100
- CC50 at 24 h [3]: 3470 µM
